# US20050250819A1 (priority 2004, published 2005)
# How the values were obtained:
# Assay type in all cases: cell-based
# [1] = system: Type III-dependent secretion of SipB (SPI1 type III protein secretion system); test: Secondary assay: Type III-dependent protein secretion of the SipB polypeptide by S. enterica; conditions: Salmonella enterica, read-out: SipB IC50(μM)
# Protocol: Secondary assay: Type III-dependent protein secretion of the SipB polypeptide by S. enterica. The SipB protein of S. enterica is another effector of the SPI1 type III protein secretion system from S. enterica. In this cell-based procedure, the Type III-dependent secretion of SipB from the bacterial cytoplasm to the extracellular medium was measured through its reactivity with a cognate mouse monoclonal.
# Salmonella enterica cells growing either in the presence or in the absence of inhibitors are induced for the production of SipB. Following an established period of growth the cells are sedimented and the amount of SipB present in the supernatant is quantified with a scanning imager following application of immunoblot techniques. Detection may employ an anti-SipB mouse monoclonal antibody (e.g., obtained from Jorge Galan, SUNY at Stony Brook, N.Y.) followed by treatment with commercially available sheep anti-mouse polyclonal antibody conjugated with horseradish peroxidase. Thereafter the membrane is treated with a peroxidase chemiluminescent substrate and exposed to film for an appropriate exposure time. Inhibition may be measured relative to untreated controls.
# [2] = system: Type III protein secretion of the chimeric SopE‘-’Bla polypeptide (SPI1 type III protein secretion system); test: Primary assay: Type III protein secretion of the chimeric SopE'-'Bla polypeptide by Salmonella enterica; conditions: read-out: SopE IC50(μM)
# Procedure, shortened: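 Salmonella enterica grown under SPI1-inducing conditions expressed a SopE‘-’Bla fusion, with TEM-1 β-lactamase lacking its signal peptide, with or without test compounds. Nitrocefin added to the cultures was hydrolysed only by the secreted fusion, so the colorimetric signal reports type III secretion, and inhibitors lower it.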
# [3] = system: Type III-dependent secretion of ExoU by P. aeruginosa PA103; test: Tertiary assay: Type III-dependent secretion of ExoU by P. aeruginosa PA103; conditions: Pseudomonas aeruginosa, ExoU secreted into extracellular medium
# Description: Tertiary assay: inhibition of Type III protein secretion of effectors from a Pseudomonas aeruginosa system. Type III protein secretion is used by P. aeruginosa to secrete several essential virulence determinants. One effector of the type III protein secretion system of P. aeruginosa PA103 is the virulence determinants ExoU.
# The amount of Type III-dependent secretion of ExoU by P. aeruginosa PA103 can be determined in a cell-based assay by quantification of the 73.9 kDa ExoU protein secreted into the extracellular medium. Such quantitation can be achieved by growing strain PA103 in a deferrated medium in the presence of nitrilotriacetic acid (an inducer of Type III protein secretion in P. aeruginosa) and either in the presence or absence of putative inhibitors. After a prolonged growth period, the cells are sedimented and the supernatants concentrated by ammonium sulfate precipitation. The proteins in the resuspended pellets are separated by electrophoresis on SDS-polyacrylamide gels. After staining gels with Colloidal Blue™, the 73.9 kDa ExoU band is quantitated by scanning through an imager. The effects of inhibitors on the intensity of the ExoU band may be measured relative to that of untreated controls.
Structure (SMILES),IC50 [1] [µM],IC50 [2] [µM],IC50 [3] [µM]
O=C(N[C@H](CO)CSCc1ccccc1)/C(=C\c1ccc(-c2ccccc2)cc1)NC(=O)c1ccc(C(F)(F)F)cc1 [Compound 14],77.3,,
"O=C(N[C@@H](Cc1ccc(Cl)cc1)C(=O)O)/C(=C\c1cccc(C(F)(F)F)c1)NC(=O)c1ccc(Oc2ccccc2)cc1 [Compound 47, (S)-3-(4-Chlorophenyl)-2-[2-(4-phenoxybenzoylamino)-3-(3-trifluoromethyl-phenyl)acryloylamino]propionic acid]",,12.4,35.1
